This passage reports IC50 results from patent US10882857B2, “Bicyclic compounds as ATX inhibitors” (Hoffmann-La Roche Inc., priority 2017, dated 2021).

The target of this experiment is ATX (human His-tagged) (Homo sapiens (Human), UniProt Q13822). Put plainly: Human ATX enzyme inhibition assay (fluorescence quenching, MR121 substrate). In kind it is biochemical. The note with it: 30 nM ATX, 1 μM MR121 substrate, 30° C. Here is the method: Human ATX Enzyme Inhibition Assay
ATX inhibition was measured by a fluorescence quenching assay using a specifically labeled substrate analogue (MR121 substrate). To obtain this MR121 substrate, BOC and TBS protected 6-amino-hexanoic acid (R)-3-({2-[3-(2-{2-[2-(2-amino-ethoxy)-ethoxy]-ethoxy-}ethoxy)-propionylamino]-ethoxy}-hydroxy-phosphoryloxy)-2-hydroxy-propyl ester (Ferguson et al., Org Lett 2006, 8 (10), 2023) was labeled with MR121 fluorophore (CAS 185308-24-1, 1-(3-carboxypropyl)-11-ethyl-1,2,3,4,8,9,10,11-octahydro-dipyrido[3,2-b:2′,3′-i]phenoxazin-13-ium) on the free amine of the ethanolamine side and then, after deprotection, subsequently with tryptophan on the side of the aminohexanoic acid.
Assay working solutions were made as follows:
Assay buffer (50 mM Tris-HCl, 140 mM NaCl, 5 mM KCl, 1 mM CaCl2, 1 mM MgCl2, 0.01% Triton-X-100, pH 8.0;
ATX solution: ATX (human His-tagged) stock solution (1.08 mg/mL in 20 mM bicine, pH 8.5, 0.15 M NaCl, 10% glycerol, 0.3% CHAPS, 0.02% NaN3), diluted to 1.4-2.5× final concentration in assay buffer;
MR121 substrate solution: MR121 substrate stock solution (800 μM MR121 substrate in DMSO), diluted to 2-5× final concentration in assay buffer.
Test compounds (10 mM stock in DMSO, 8 μL) were obtained in 384 well sample plates (Corning Costar #3655) and diluted with 8 μL DMSO. Row-wise serial dilutions were made by transferring 8 μL cpd solution to the next row up to row O. The compound and control solutions were mixed five times and 2 μL were transferred to 384 well assay plates (Corning Costar #3702). Then, 15 μL of 41.7 nM ATX solution was added (30 nM final concentration), mixed five times and then incubated for 15 minutes at 30° C. 10 μL of MR121 substrate solution was added (1 μM final concentration), mixed 30 times and then incubated for 15 minutes at 30° C.
Fluorescence was then measured every 2 minutes for 1 hour (Perkin Elmer plate: vision multimode reader); light intensity: 2.5%; exp. time: 1.4 sec, Filter: Fluo_630/690 nm) and IC50 values were calculated from these readouts.
Turning to `O=C(c1cc(OCC2CCOCC2)nc(C2CC2)c1)N1CCc2cc(C(=O)N3CCc4[nH]nnc4C3)ccc2C1` [Example 1, [2-[2-Cyclopropyl-6-(oxan-4-ylmethoxy)pyridine-4-carbonyl]-3,4-dihydro-1H-isoquinolin-6-yl]-(1,4,6,7-tetrahydrotriazolo[4,5-c]pyridin-5-yl)methanone], the IC50 (usually the concentration that gives 50% inhibition) is 2 nM.
In the case of `O=C(c1cc(OCC2CCOCC2)nc(C2CC2)c1)N1Cc2nc(C(=O)N3CCc4[nH]nnc4C3)oc2C1` [Example 1.01, [2-cyclopropyl-6-(oxan-4-ylmethoxy)pyridin-4-yl]-[2-(1,4,6,7-tetrahydrotriazolo[4,5-c]pyridine-5-carbonyl)-4,6-dihydropyrrolo[3,4-d][1,3]oxazol-5-yl]methanone] it was 2 nM; in that of `O=C(c1cc(OCC2CCOCC2)nc(C2CC2)c1)N1Cc2ccc(C(=O)N3CCc4c(O)noc4C3)cc2C1` [Example 2, [2-[2-Cyclopropyl-6-(oxan-4-ylmethoxy)pyridine-4-carbonyl]-1,3-dihydroisoindol-5-yl]-(3-hydroxy-5,7-dihydro-4H-[1,2]oxazolo[5,4-c]pyridin-6-yl)methanone], 24 nM.
For `NS(=O)(=O)C1CCN(C(=O)c2ccc3c(c2)CN(C(=O)c2cc(OCC4CCOCC4)nc(C4CC4)c2)C3)CC1` [Example 2.01, 1-[2-[2-cyclopropyl-6-(oxan-4-ylmethoxy)pyridine-4-carbonyl]-1,3-dihydroisoindole-5-carbonyl]piperidine-4-sulfonamide] the value was 10 nM; for `O=C(c1cc(OCC2CCOCC2)nc(C2CC2)c1)N1Cc2ccc(C(=O)N3CCc4onc(O)c4C3)cc2C1` [Example 2.02, [2-[2-cyclopropyl-6-(oxan-4-ylmethoxy)pyridine-4-carbonyl]-1,3-dihydroisoindol-5-yl]-(3-hydroxy-6,7-dihydro-4H-[1,2]oxazolo[4,5-c]pyridin-5-yl)methanone], 7 nM; for `CC(C)(C)C(=O)Nc1cc(C(F)(F)F)cnc1COC(=O)N1Cc2ccc(C(=O)N3CCC(S(N)(=O)=O)CC3)cc2C1` [Example 2.03, [3-(2,2-dimethylpropanoylamino)-5-(trifluoromethyl)pyridin-2-yl]methyl 5-(4-sulfamoylpiperidine-1-carbonyl)-1,3-dihydroisoindole-2-carboxylate], 7 nM.
For `CC(C)(C)C(=O)Nc1cc(C(F)(F)F)cnc1COC(=O)N1Cc2ccc(C(=O)N3CCc4c(O)noc4C3)cc2C1` [Example 2.04, [3-(2,2-dimethylpropanoylamino)-5-(trifluoromethyl)pyridin-2-yl]methyl 5-(3-hydroxy-5,7-dihydro-4H-[1,2]oxazolo[5,4-c]pyridine-6-carbonyl)-1,3-dihydroisoindole-2-carboxylate] the value was 7 nM.
As for `CC(C)(C)C(=O)Nc1cc(C(F)(F)F)cnc1COC(=O)N1Cc2ccc(C(=O)N3CCc4onc(O)c4C3)cc2C1` [Example 2.05, [3-(2,2-dimethylpropanoylamino)-5-(trifluoromethyl)pyridin-2-yl]methyl 5-(3-hydroxy-6,7-dihydro-4H-[1,2]oxazolo[4,5-c]pyridine-5-carbonyl)-1,3-dihydroisoindole-2-carboxylate], the half-maximal inhibitory concentration (IC50) worked out at 4 nM.
`CC(C)(C)C(=O)Nc1cc(C(F)(F)F)cnc1COC(=O)N1Cc2nc(C(=O)N3CCC(S(N)(=O)=O)CC3)oc2C1` [Example 2.06, [3-(2,2-dimethylpropanoylamino)-5-(trifluoromethyl)pyridin-2-yl]methyl 2-(4-sulfamoylpiperidine-1-carbonyl)-4,6-dihydropyrrolo[3,4-d][1,3]oxazole-5-carboxylate]: the IC50 was 1 nM.
For `O=C(c1cc(OCC2CCOCC2)nc(C2CC2)c1)N1Cc2nc(C(=O)N3CCc4c(O)noc4C3)oc2C1` [Example 3, [2-Cyclopropyl-6-(oxan-4-ylmethoxy)pyridin-4-yl]-[2-(3-hydroxy-5,7-dihydro-4H-[1,2]oxazolo[5,4-c]pyridine-6-carbonyl)-4,6-dihydropyrrolo[3,4-d][1,3]oxazol-5-yl]methanone] the value was 5 nM; for `NS(=O)(=O)C1CCN(C(=O)c2nc3c(s2)CN(C(=O)c2cc(OCC4CCOCC4)nc(C4CC4)c2)C3)CC1` [Example 3.01, 1-[5-[2-cyclopropyl-6-(oxan-4-ylmethoxy)pyridine-4-carbonyl]-4,6-dihydropyrrolo[3,4-d][1,3]thiazole-2-carbonyl]piperidine-4-sulfonamide], 2 nM.
For `NS(=O)(=O)C1CCN(C(=O)c2cc3c(s2)CN(C(=O)c2cc(OCC4CCOCC4)nc(C4CC4)c2)C3)CC1` [Example 3.02, 1-[5-[2-cyclopropyl-6-(oxan-4-ylmethoxy)pyridine-4-carbonyl]-4,6-dihydrothieno[2,3-c]pyrrole-2-carbonyl]piperidine-4-sulfonamide] the value was 7 nM; for `CC(C)(C)C(=O)Nc1cc(C(F)(F)F)cnc1COC(=O)N1Cc2nc(C(=O)N3CCc4[nH]nnc4C3)oc2C1` [Example 4, [3-(2,2-Dimethylpropanoylamino)-5-(trifluoromethyl)pyridin-2-yl]methyl 2-(1,4,6,7-tetrahydrotriazolo[4,5-c]pyridine-5-carbonyl)-4,6-dihydropyrrolo[3,4-d][1,3]oxazole-5-carboxylate], 1 nM.
Regarding `CC(C)(C)C(=O)Nc1cc(C#N)c(Cl)cc1COC(=O)N1Cc2nc(C(=O)N3CCc4c(O)noc4C3)oc2C1` [Example 4.01, [5-chloro-4-cyano-2-(2,2-dimethylpropanoylamino)phenyl]methyl 2-(3-hydroxy-5,7-dihydro-4H-[1,2]oxazolo[5,4-c]pyridine-6-carbonyl)-4,6-dihydropyrrolo[3,4-d][1,3]oxazole-5-carboxylate], inhibition was half-maximal at 7 nM (IC50).
For `CC(C)(C)C(=O)Nc1cc(C(F)(F)F)cnc1COC(=O)N1Cc2cc(C(=O)N3CCC(S(N)(=O)=O)CC3)sc2C1` [Example 4.02, [3-(2,2-Dimethylpropanoylamino)-5-(trifluoromethyl)pyridin-2-yl]methyl 2-(4-sulfamoylpiperidine-1-carbonyl)-4,6-dihydrothieno[2,3-c]pyrrole-5-carboxylate] the value was 1 nM.
